Laboratory results taken from patent US8153693B2, “Compounds for the selective treatment of the intestinal immuno-inflammatory component of the celiac disease” (Giuliani International Limited, priority 2007, dated 2012).

System: IL-2
Experiment: Cytokine assay (ELISA) in culture liquids of duodenal biopsy organ cultures: IL-2
Format: cell-based, human
Conditions: for IL-2, PT + 5ASA C, Mean / IL-2, PT + 5ASA C, Median: peptic-tryptic digest of gliadin (PT)
Method: 3 groups of subjects were evaluated. The first (atrophic) group included 29 subjects with serum tests positive to antiendomysium and anti-transglutaminase antibodies, with a neo-diagnosis of celiac disease and gluten-containing diet. The second (Remission) group included 17 celiac disease subjects in clinical remission and gluten-free diet for at least 6 months. The third (Healthy) group included subjects not suffering from the celiac disease but suffering from inflammation of the gastro-enteric tract. […] The biopsies were washed in saline for two minutes at least three times. […] Three different amounts of medium are shared for the ELISA assay of Th1 and Th2 cytokines released in culture media.

[1] = Atrophic population, N 15, Wilcoxon p = 0.012
[2] = Atrophic population, N 15, Wilcoxon p = 0.03
[3] = Positive control population, N 7
[4] = Positive control population, N 7, Wilcoxon p = 0.07
[5] = Positive control population, N 7, Wilcoxon p = N.S.
[6] = Remission population, N 12, Wilcoxon p = N.S.

In the case of `Nc1ccc(O)c(C(=O)O)c1` [Compound 5ASA, mesalazine], the “IL-2, Medium + 5ASA C, Mean” value (Atrophic population, N 15) is reported as 0.119, the “IL-2, Medium + 5ASA C, Median” value (Atrophic population, N 15) is reported as 0.0910 and the “IL-2, Difference PT C/PT + 5ASA C, Mean” value [1] is reported as 0.0270. The “IL-2, Difference PT C/PT + 5ASA C, Median” value [1] was 0.0410, the “IL-2, Difference Medium C/Medium + 5ASA C, Mean” value [2] was 0.0559 and the “IL-2, Difference Medium C/Medium + 5ASA C, Median” value [2] was 0.0490. The “IL-2, PT + 5ASA C, Mean” value (Atrophic population, N 15) was 0.124, the “IL-2, PT + 5ASA C, Median” value (Atrophic population, N 15) was 0.0770 and the “IL-2, Medium + 5ASA C, Mean” value [3] was 0.356. For the same molecule, the “IL-2, Medium + 5ASA C, Median” value [3] was 0.379, the “IL-2, Difference Medium C/Medium + 5ASA C, Mean” value [4] was 0.116 and the “IL-2, Difference Medium C/Medium + 5ASA C, Median” value [4] was 0.247. The “IL-2, Difference PT C/PT + 5ASA C, Mean” value [5] was −0.020, the “IL-2, Difference PT C/PT + 5ASA C, Median” value [5] was 0.0210 and the “IL-2, PT + 5ASA C, Mean” value [3] was 0.521. The “IL-2, PT + 5ASA C, Median” value [3] was 0.468, the “IL-2, Medium + 5ASA C, Mean” value (Remission population, N 12) was 0.309 and the “IL-2, Medium + 5ASA C, Median” value (Remission population, N 12) was 0.253. The “IL-2, Difference Medium C/Medium + 5ASA C, Mean” value [6] was 0.0061, the “IL-2, Difference Medium C/Medium + 5ASA C, Median” value [6] was 5E−4 and the “IL-2, Difference PT C/PT + 5ASA C, Mean” value [6] was 0.0365. The “IL-2, Difference PT C/PT + 5ASA C, Median” value [6] was 0.0260, the “IL-2, PT + 5ASA C, Mean” value (Remission population, N 12) was 0.234 and the “IL-2, PT + 5ASA C, Median” value (Remission population, N 12) was 0.194.
